Measurements as given in paper PMC3127977, “No relevant cardiac, pharmacokinetic or safety interactions between roflumilast and inhaled formoterol in healthy subjects: an open-label, randomised, actively controlled study” (BMC Clinical Pharmacology, 2011).

Test system: healthy subjects
Assay: Transthoracic impedance cardiography (ZCG) and systolic time intervals in healthy men; oral roflumilast 500 μg once daily, inhaled formoterol 24 μg twice daily
Conditions: Regimen A
Method: For Regimen A, subjects received 500 μg oral roflumilast once daily (daily dose: one tablet of roflumilast 500 μg) from the morning of Day 2 to the morning of Day 18. […] For Regimen B, subjects received 24 μg formoterol for oral inhalation delivered by a DPI device (Foradil® P) twice daily, once in the morning and once in the evening from the morning of Day 2 to the evening of Day 18.
Cardiovascular effects were evaluated non-invasively by means of ECGs (cardiac rhythm, intra-cardiac conduction and ventricular repolarisation), oscillometric blood pressure and transthoracic impedance cardiography (ZCG; systolic time intervals, contractility indices and estimates of stroke volume and cardiac output). Cardiovascular assessments (oscillometric blood pressure, pulse rate, 12-lead ECG, and three-lead ZCG) were recorded before dosing and at 10, 20, 40 and 60 minutes, and at 2, 3, 4, 5, 6, 7 and 8 hours after morning dosing. […] All cardiovascular measurements were carried out after the subjects had been recumbent for at least 10 minutes; they generally stayed in bed from 1 hour before until 8 hours after morning dosing.
Systolic time intervals (STIs) and ZCG estimates of the systolic cardiac pump performance were derived from the simultaneous registration of a one-lead ECG, a phonocardiogram (PCG), and the rate of change of the transthoracic impedance (dZ/dt) to an AC current applied through the thoracic cage (CARDIODYNAGRAPH; Diefenbach GmbH, Wiesbaden, Germany). Tracings were captured and stored digitally during the study and subsequently analysed after the study by displaying the analogue ECG, PCG and ZCG signals on a computer screen. The relevant signal amplitudes and time intervals were delineated manually by operator-steered cursors; measurements were made for at least 10 artefact-free consecutive cardiac cycles. From these tracings, the following variables were derived by direct measurement: RR interval (ms), total electromechanic systole (QS2 [ms]), ventricular ejection time (VET [ms]), baseline transthoracic impedance (Z0 [Ω]), and maximum negative velocity of transthoracic impedance changes during the cardiac cycle (dZ/dtmax [Ω/s]). These variables were analysed for the 10 cycles and their means were used in the calculations of the following variables: heart rate (HR [bpm]), pre-ejection period (PEP [ms] = QS2 - VET), HR-corrected STIs (STIc and STIi according to Weissler et al.), ZCG estimates of stroke volume (SV [mL] according to Kubicek's equation [37] using the equation of Geddes and Sadler for the specific resistance of blood), cardiac output (CO [mL/min]), and total peripheral resistance (TPR [dyn.s.cm^-5]). For the latter variable, the mean blood pressure (MBP [mmHg]) was used as calculated according to Wezler and Böger from the systolic blood pressure (mmHg) and the diastolic blood pressure (mmHg).
ZCG analysis was carried out by a single analyst who was blinded with regard to subject, study regimen, profiling day within regimen, and time during the day.

With `O=C(Nc1c(Cl)cncc1Cl)c1ccc(OC(F)F)c(OCC2CC2)c1` [Roflumilast, 3-cyclopropylmethoxy-N-(3,5-dichloropyridin-4-yl)-4-(difluoromethoxy)benzamide] the “CO, Day 1-matched post-dose maximum dmax (δ), median” value (Day 11 (R)) was 1.6 L/min, the “CO, Day 1-matched post-dose minimum dmin (δ), median” value (Day 11 (R)) was -1.7 L/min and the “CO, untransformed post-dose maximum dmax (U), median” value (Day 11 (R)) was 10.6 L/min. The “CO, untransformed post-dose minimum dmin (U), median” value (Day 11 (R)) was 8.3 L/min, the “CO, untransformed pre-dose morning value, median” value (Day 11 (R)) was 9.1 L/min and the “HR, Day 1-matched post-dose maximum dmax (δ), median” value (Day 11 (R)) was 9 bpm. For the same compound, the “HR, Day 1-matched post-dose minimum dmin (δ), median” value (Day 11 (R)) was -4 bpm, the “HR, untransformed post-dose maximum dmax (U), median” value (Day 11 (R)) was 64 bpm and the “HR, untransformed post-dose minimum dmin (U), median” value (Day 11 (R)) was 54 bpm. For the same compound, the “HR, untransformed pre-dose morning value, median” value (Day 11 (R)) was 63 bpm, the “PEP, Day 1-matched post-dose maximum dmax (δ), median” value (Day 11 (R)) was 25 ms and the “PEP, Day 1-matched post-dose minimum dmin (δ), median” value (Day 11 (R)) was -27 ms. The “PEP, untransformed post-dose maximum dmax (U), median” value (Day 11 (R)) was 121 ms, the “PEP, untransformed post-dose minimum dmin (U), median” value (Day 11 (R)) was 86 ms and the “PEP, untransformed pre-dose morning value, median” value (Day 11 (R)) was 94 ms. For the same compound, the “QS2, Day 1-matched post-dose maximum dmax (δ), median” value (Day 11 (R)) was 19 ms, the “QS2, Day 1-matched post-dose minimum dmin (δ), median” value (Day 11 (R)) was -34 ms and the “QS2, untransformed post-dose maximum dmax (U), median” value (Day 11 (R)) was 454 ms. The “QS2, untransformed post-dose minimum dmin (U), median” value (Day 11 (R)) was 410 ms, the “QS2, untransformed pre-dose morning value, median” value (Day 11 (R)) was 423 ms and the “TPR, Day 1-matched post-dose maximum dmax (δ), median” value (Day 11 (R)) was 126 dyn.s.cm^-5. For the same compound, the “TPR, Day 1-matched post-dose minimum dmin (δ), median” value (Day 11 (R)) was -128 dyn.s.cm^-5, the “TPR, untransformed post-dose maximum dmax (U), median” value (Day 11 (R)) was 934 dyn.s.cm^-5 and the “TPR, untransformed post-dose minimum dmin (U), median” value (Day 11 (R)) was 733 dyn.s.cm^-5. For the same compound, the “TPR, untransformed pre-dose morning value, median” value (Day 11 (R)) was 838 dyn.s.cm^-5, the “dZ/dt, Day 1-matched post-dose maximum dmax (δ), median” value (Day 11 (R)) was 0.28 Ω/s and the “dZ/dt, Day 1-matched post-dose minimum dmin (δ), median” value (Day 11 (R)) was -0.10 Ω/s. The “dZ/dt, untransformed post-dose maximum dmax (U), median” value (Day 11 (R)) was 1.93 Ω/s, the “dZ/dt, untransformed post-dose minimum dmin (U), median” value (Day 11 (R)) was 1.56 Ω/s and the “dZ/dt, untransformed pre-dose morning value, median” value (Day 11 (R)) was 1.67 Ω/s. For the same compound, the “CO, dmax (U), point estimate (95% CI) of difference between days” value (Day 11-Day 1) was 0.2 (-1.1 to 1.4) L/min, the “CO, dmin (U), point estimate (95% CI) of difference between days” value (Day 11-Day 1) was -0.4 (-1.2 to 0.4) L/min and the “CO, untransformed pre-dose morning value, point estimate (95% CI) of difference between days” value (Day 11-Day 1) was -0.6 (-1.7 to 0.5) L/min. For the same compound, the “HR, dmax (U), point estimate (95% CI) of difference between days” value (Day 11-Day 1) was 3 (-4 to 6) bpm, the “HR, dmin (U), point estimate (95% CI) of difference between days” value (Day 11-Day 1) was 4 (1 to 7) bpm and the “HR, untransformed pre-dose morning value, point estimate (95% CI) of difference between days” value (Day 11-Day 1) was 3 (-5 to 8) bpm. The “PEP, dmax (U), point estimate (95% CI) of difference between days” value (Day 11-Day 1) was 3 (-7 to 11) ms, the “PEP, dmin (U), point estimate (95% CI) of difference between days” value (Day 11-Day 1) was 0 (-9 to 13) ms and the “PEP, untransformed pre-dose morning value, point estimate (95% CI) of difference between days” value (Day 11-Day 1) was -3 (-17 to 10) ms. For the same compound, the “QS2, dmax (U), point estimate (95% CI) of difference between days” value (Day 11-Day 1) was -1 (-11 to 11) ms, the “QS2, dmin (U), point estimate (95% CI) of difference between days” value (Day 11-Day 1) was -9 (-21 to 8) ms and the “QS2, untransformed pre-dose morning value, point estimate (95% CI) of difference between days” value (Day 11-Day 1) was -10 (-21 to 2) ms. The “TPR, dmax (U), point estimate (95% CI) of difference between days” value (Day 11-Day 1) was 47 (-124 to 178) dyn.s.cm^-5, the “TPR, dmin (U), point estimate (95% CI) of difference between days” value (Day 11-Day 1) was -18 (-96 to 43) dyn.s.cm^-5 and the “TPR, untransformed pre-dose morning value, point estimate (95% CI) of difference between days” value (Day 11-Day 1) was 14 (-98 to 121) dyn.s.cm^-5. The “dZ/dt, dmax (U), point estimate (95% CI) of difference between days” value (Day 11-Day 1) was -0.05 (-0.25 to 0.15) Ω/s, the “dZ/dt, dmin (U), point estimate (95% CI) of difference between days” value (Day 11-Day 1) was 0.03 (-0.18 to 0.20) Ω/s and the “dZ/dt, untransformed pre-dose morning value, point estimate (95% CI) of difference between days” value (Day 11-Day 1) was -0.06 (-0.29 to 0.16) Ω/s. For the same compound, the “effect on cardiovascular function (ZCG/STI variables)” value (roflumilast alone) was “little effect”.
